Patent US20200255807A1, “IN VITRO PROPAGATION OF PRIMARY CANCER CELLS” (University of Cape Town, priority 2017, published 2020)

B1: Papain: protease enzyme (10 mg/ml) added with collagenase II to the isolation buffer for digesting tumour biopsy tissue (protein, UniProt P00784 134-345, looked up)
Papain: IPEYVDWRQKGAVTPVKNQGSCGSCWAFSAVVTIEGIIKIRTGNLNEYSEQELLDCDRRSYGCNGGYPWSALQLVAQYGIHYRNTYPYEGVQRYCRSREKGPYAAKTDGVRQVQPYNEGALLYSIANQPVSVVLEAAGKDFQLYRGGIFVGPCGNKVDHAVAAVGYGPNYILIKNSWGTGWGENGYIRIKRGTGNSYGVCGLYTSSFYPVKN

Test system: primary breast cancer cells
Assay: Isolation of primary breast cancer cells from biopsy samples by digestion with collagenase II plus an additional enzyme (cell yield and viability)
Assay type: cell-based, human
Conditions: for Mean fold increase in cell number (collagenase II = 1): additional enzyme used in conjunction with 5 μg/ml collagenase II, 45 min at 37° C., compared to collagenase II alone
Experimental: A fresh primary breast cancer tumour biopsy sample (10-200 mg of tissue) was placed in 5 ml Hanks Balanced Salts (HBSS; Lonza, Germany; pH=7.5) on ice and it was transported immediately to the laboratory. The biopsy sample was weighed and then cut into 1 mm by 1 mm pieces using a scalpel in a BSL2 cabinet. The cut pieces were placed in 1 ml HBSS containing 5 μg/ml collagenase II (Ambion, USA) with or without 5 U/ml hyaluronidase, dispase II or papain (10 mg/ml) and the tissue was digested by incubation at 37° C. with rotation for 45 min. After the incubation time, a […] cell strainer (Becton Dickinson, USA) was placed into a 50 ml tube. The undigested material was pipetted up and down 10 times and then placed onto the cell strainer. The cell strainer was washed with 10 ml of HBSS and the cells were pelleted at 500×g for 5 min. The pelleted cells were then washed with an additional 10 ml of HBSS.
The pelleted cells were re-suspended in DMEM/F12 containing 10% human A/B serum (Western Province Blood Transfusion Services), 100 IU penicillin/streptomycin (Lonza, Germany), 0.1 mM sodium pyruvate (Lonza, Germany), […] (Sigma, Germany), […] (Sigma, Germany), 5 mM ethanolamine (Sigma, Germany), 5 μg/ml selenium (Sigma, Germany) and 10 nM estradiol (Sigma, Germany). The cells were then plated into a multi well plate or dish, which was dependent on the cell number. The breast cancer cells were incubated at 37° C. for 2 days and the medium was replaced with fresh medium without 10 nM estradiol, but with 100 nM cortisol (Sigma, Germany). The medium was replaced every 2 days with fresh medium containing half the concentration of cortisol used on the previous day. When the cells were confluent they were split using a standard procedure (trypsin) into a larger culture vessel.

Molecule | Mean fold increase in cell number (collagenase II = 1) (breast biopsy samples) | Mean fold increase in cell number (collagenase II = 1) (breast biopsy samples, listed as hyaluronidase) | Mean cell viability (additional enzyme used in conjunction with collagenase II for cell isolation, breast biopsy samples (Table 1)) | mean viability of the cells (enzyme used in conjunction with collagenase II, breast biopsy samples) | Mean fold increase in cell number (collagenase II = 1) (breast biopsy samples, listed as papain)
Hyaluronidase | 2.7 (SD = 1.2-4.5) fold | 2.7 fold | 69% | 69% | –
B1 | 0.7 (SD = 0.4-0.9) fold | – | – | – | 0.7 fold
